Measurements published in publication PMC6001238, “Iterative Chemical Engineering of Vancomycin Leads to Novel Vancomycin Analogs With a High in Vitro Therapeutic Index” (Frontiers in Microbiology, 2018).
Converted amounts (≈) assume the structure as drawn.

Tests used:
MRSA = test: Time-kill curves, MRSA at 4x MIC; format: cell-based, Staphylococcus aureus; conditions: 1-24 h
Experimental: Time-kill curves were determined based on the CLSI guidelines ([Clinical and Laboratory Standards Institute [CLSI], 1999]). Single colonies grown overnight at 37°C were resuspended in Ca^2+-adjusted (0.05 mg/mL) Mueller Hinton broth up to an optical density (625 nm) of 0.08–00.10 (corresponding to the 0.5 McFarland standard), followed by a 10-fold dilution in the same broth. Subsequently, 0.2 mL inoculum was added to 1.7 mL Ca^2+-adjusted (0.05 mg/mL) Mueller Hinton broth, followed by addition of the antibacterial compound (0.1 mL). The final concentration of the antibacterial compound corresponded to the 4x MIC value for that compound. For the antibiotic-free control, the compound was replaced by an equal volume of ultrapure water. The final inoculum concentration was approximately 10^6 CFU/mL. The cultures were continuously shaken at 37°C. After 1, 2, 4, 6, 8, and 24 h, a 0.1 mL aliquot was removed, serially diluted in cold 0.9% w/v NaCl and plated on BHI (VRE) and LB (MRSA) agar plates. Plates were incubated overnight at 37°C and colonies were counted.

VRE 39 = test: Resistance development, serial exposure to subinhibitory doses, 20 cycles; format: cell-based, Enterococcus faecalis; conditions: subinhibitory doses (MIC/2)
Experimental: To monitor resistance development upon exposure to subinhibitory doses, the initial MIC of Vanc-39, Vanc-42 and daptomycin was determined against VRE 39. A new MIC assay was prepared using 1,000-fold diluted cells grown at MIC/2 (occasionally MIC/4 if growth in MIC/2 was too limited). This was repeated for 20 cycles and changes in MIC were monitored.

VRE39 = test: MIC in the absence and presence of 10 µM vancomycin (vanA induction); format: cell-based, Enterococcus faecalis
Experimental: The minimum inhibitory concentration (MIC) was determined using the broth microdilution method according to the antimicrobial susceptibility testing standards of the clinical and laboratory standards institute ([Clinical and Laboratory Standards Institute [CLSI], 2012]). Ultrapure water and non-inoculated broth were used as controls. In one case, a final concentration of 10 μM vancomycin was included with the vancomycin analog or control antibiotic.

B. subtilis PSB3 = test: MIC, broth microdilution, B. subtilis PSB3; format: cell-based, Bacillus subtilis
Procedure, shortened: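 Following CLSI antimicrobial susceptibility standards, organisms were tested by broth microdilution. Controls comprised ultrapure water plus broth left uninoculated. For a single condition, 10 μM vancomycin (final) accompanied the analog or control agent.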

E. coli XL-1 blue MRF' = test: MIC, broth microdilution, E. coli XL-1 blue MRF'; format: cell-based, Escherichia coli
Procedure, shortened: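 Read-out: lowest concentration inhibiting growth in broth microdilution, CLSI method. Water and broth-only wells acted as controls; in one case 10 μM vancomycin (final) was present with the compound.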

[1] = tested on: lipid II with terminal D-Ala-D-Lac; design: method as in Arthur and Courvalin, 1993; Walsh et al., 1996; conditions: D-Ala-D-Lac versus D-Ala-D-Ala termini ref Arthur and Courvalin, 1993; Walsh et al., 1996; cited from earlier work

CCCCCCCCCC(=O)N[C@@H](Cc1c[nH]c2ccccc12)C(=O)N[C@H](CC(N)=O)C(=O)N[C@@H](CC(=O)O)C(=O)N[C@@H]1C(=O)NCC(=O)N[C@@H](CCCN)C(=O)N[C@@H](CC(=O)O)C(=O)N[C@H](C)C(=O)N[C@@H](CC(=O)O)C(=O)NCC(=O)N[C@H](CO)C(=O)N[C@@H]([C@H](C)CC(=O)O)C(=O)N[C@@H](CC(=O)c2ccccc2N)C(=O)O[C@@H]1C [Daptomycin, reference compound]
time-kill curve character (MRSA): complete elimination after 24 h
change in MIC upon serial exposure (VRE 39): eightfold higher concentration

CN(C)c1cc(NC(=O)CNC(C)(C)C)c(O)c2c1C[C@H]1C[C@H]3[C@H](N(C)C)C(O)=C(C(N)=O)C(=O)[C@@]3(O)C(O)=C1C2=O [Tigecycline, reference compound]
time-kill curve character (MRSA): typical bacteriostatic time-kill curve

CNC(CC(C)C)C(=O)NC1C(=O)NC(CC(N)=O)C(=O)NC2C(=O)NC3C(=O)NC(C(=O)NC(C(=O)NCCCNC(=O)c4cc5ccccc5[nH]4)c4cc(O)cc(O)c4-c4cc3ccc4O)C(O)c3ccc(c(Cl)c3)Oc3cc2cc(c3OC2OC(CO)C(O)C(O)C2OC2CC(C)(N)C(O)C(C)O2)Oc2ccc(cc2Cl)C1O (stereo not drawn) [Vanc-24]
time-kill curve character (MRSA): quickest onset of killing
MIC (VRE39; VRE39, 0 µM vancomycin): 3.13 µM
MIC (VRE39; VRE39, 10 μM vancomycin added): 6.25 µM

CCCCc1ccc(NC(=O)CNC(=O)[C@H]2NC(=O)[C@H]3NC(=O)[C@H](NC(=O)[C@@H]4NC(=O)[C@H](CC(N)=O)NC(=O)[C@H](NC(=O)[C@@H](CC(C)C)NC)[C@H](O)c5ccc(c(Cl)c5)Oc5cc4cc(c5O[C@@H]4O[C@H](CO)[C@@H](O)[C@H](O)[C@H]4O[C@H]4C[C@](C)(N)[C@H](O)[C@H](C)O4)Oc4ccc(cc4Cl)[C@H]3O)c3ccc(O)c(c3)-c3c(O)cc(O)cc32)cc1 [Vanc-39]
change in MIC upon serial exposure (VRE 39): oscillated between the original value and a twofold increase
MIC (VRE39; VRE39, 0 µM vancomycin): 1.56 µM
MIC (VRE39; VRE39, 10 μM vancomycin added): 6.25 µM

CN[C@H](CC(C)C)C(=O)N[C@H]1C(=O)N[C@@H](CC(N)=O)C(=O)N[C@H]2C(=O)N[C@H]3C(=O)N[C@H](C(=O)N[C@H](C(=O)NCC(=O)Nc4ccc5c(c4)Cc4ccccc4-5)c4cc(O)cc(O)c4-c4cc3ccc4O)[C@H](O)c3ccc(c(Cl)c3)Oc3cc2cc(c3O[C@@H]2O[C@H](CO)[C@@H](O)[C@H](O)[C@H]2O[C@H]2C[C@](C)(N)[C@H](O)[C@H](C)O2)Oc2ccc(cc2Cl)[C@H]1O [Vanc-42]
change in MIC upon serial exposure (VRE 39): oscillated between the original value and a twofold increase
MIC (VRE39; VRE39, 0 µM vancomycin): 1.56 µM
MIC (VRE39; VRE39, 10 μM vancomycin added): 1.56 µM

CNC(CC(C)C)C(=O)NC1C(=O)NC(CC(N)=O)C(=O)NC2C(=O)NC3C(=O)NC(C(=O)NC(C(=O)NCCCNC(=O)c4ccc5cc(NS(=O)(=O)c6ccc(C(C)C)cc6)ccc5c4)c4cc(O)cc(O)c4-c4cc3ccc4O)C(O)c3ccc(c(Cl)c3)Oc3cc2cc(c3OC2OC(CO)C(O)C(O)C2OC2CC(C)(N)C(O)C(C)O2)Oc2ccc(cc2Cl)C1O (stereo not drawn) [Vanc-66]
MIC (VRE39; VRE39, 0 µM vancomycin): 3.13 µM
MIC (VRE39; VRE39, 10 μM vancomycin added): 3.13 µM

CN[C@H](CC(C)C)C(=O)N[C@H]1C(=O)N[C@@H](CC(N)=O)C(=O)N[C@H]2C(=O)N[C@H]3C(=O)N[C@H](C(=O)N[C@H](C(=O)O)c4cc(O)cc(O)c4-c4cc3ccc4O)[C@H](O)c3ccc(c(Cl)c3)Oc3cc2cc(c3O[C@@H]2O[C@H](CO)[C@@H](O)[C@H](O)[C@H]2O[C@H]2C[C@](C)(N)[C@H](O)[C@H](C)O2)Oc2ccc(cc2Cl)[C@H]1O [Vancomycin]
MIC (B. subtilis PSB3; Bacillus subtilis): 0.39 µM (≈ 0.565 µg/mL)
MICvanc/MICi (B. subtilis PSB3; ratio of MIC of vancomycin and MIC of analogue): 1
MICvanc/MICi (E. coli XL-1 blue MRF'; E. coli XL-1 blue MRF', ratio of MIC of vancomycin and MIC of analogue): 1
MIC (E. coli XL-1 blue MRF'; Escherichia coli): 100 µM (≈ 145 µg/mL)
MIC (VRE39; Enterococcus faecalis, VRE39, 0 µM vancomycin): 800 µM
MIC (VRE39; Enterococcus faecalis, VRE39, 10 μM vancomycin added): 400 µM
reduced affinity for vancomycin [1]: 1000 fold
